Target: T1, GPR124 (Homo sapiens, UniProt Q96PE1)
T1 construct: endogenous in cells; host or cells: T98g human astrocytoma cells
T1 sequence (Q96PE1 34-1338): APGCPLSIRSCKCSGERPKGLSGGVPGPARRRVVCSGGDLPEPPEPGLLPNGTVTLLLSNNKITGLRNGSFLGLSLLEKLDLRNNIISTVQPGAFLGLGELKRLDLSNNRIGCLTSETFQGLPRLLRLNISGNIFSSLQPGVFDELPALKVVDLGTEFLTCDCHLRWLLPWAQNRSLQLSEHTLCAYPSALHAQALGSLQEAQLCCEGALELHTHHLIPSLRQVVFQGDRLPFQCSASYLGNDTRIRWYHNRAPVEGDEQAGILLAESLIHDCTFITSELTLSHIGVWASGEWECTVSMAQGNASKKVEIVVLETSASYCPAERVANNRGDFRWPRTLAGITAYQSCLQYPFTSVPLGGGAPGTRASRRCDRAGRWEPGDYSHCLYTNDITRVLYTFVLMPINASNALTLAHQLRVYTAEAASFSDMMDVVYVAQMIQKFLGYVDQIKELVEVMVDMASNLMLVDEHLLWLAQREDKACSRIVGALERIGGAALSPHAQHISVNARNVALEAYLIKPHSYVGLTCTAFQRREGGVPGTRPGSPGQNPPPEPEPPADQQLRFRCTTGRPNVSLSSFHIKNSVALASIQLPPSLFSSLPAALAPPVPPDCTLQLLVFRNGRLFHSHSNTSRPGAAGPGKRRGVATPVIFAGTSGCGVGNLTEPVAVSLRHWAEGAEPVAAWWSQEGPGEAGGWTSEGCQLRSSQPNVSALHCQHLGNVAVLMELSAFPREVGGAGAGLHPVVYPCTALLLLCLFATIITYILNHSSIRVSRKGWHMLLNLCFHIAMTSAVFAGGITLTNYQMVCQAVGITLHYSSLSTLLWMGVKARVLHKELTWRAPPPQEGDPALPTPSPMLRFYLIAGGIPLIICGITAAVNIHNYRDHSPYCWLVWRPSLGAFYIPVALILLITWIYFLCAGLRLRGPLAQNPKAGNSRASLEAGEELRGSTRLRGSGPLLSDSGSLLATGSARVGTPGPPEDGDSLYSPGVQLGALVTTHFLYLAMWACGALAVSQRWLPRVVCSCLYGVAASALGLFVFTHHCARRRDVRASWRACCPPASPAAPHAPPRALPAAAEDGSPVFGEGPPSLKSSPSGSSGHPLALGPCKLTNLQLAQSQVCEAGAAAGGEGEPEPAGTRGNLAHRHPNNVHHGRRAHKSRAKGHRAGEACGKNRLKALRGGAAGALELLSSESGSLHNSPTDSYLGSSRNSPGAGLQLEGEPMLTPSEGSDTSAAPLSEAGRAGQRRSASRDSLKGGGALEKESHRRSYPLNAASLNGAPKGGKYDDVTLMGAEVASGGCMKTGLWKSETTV
Assay: ST-11 toxicity in T98 g cells after siRNA knock-down of GPR124
Assay type: cell-based
Conditions: ST-11 1 μM, siRNA targeting GPR124, viability after three days
Experimental: To determine which of the gene candidate encodes for AI receptors, an siRNA approach is used to knock down each candidate individually to determine which one prevents the toxic effect of ST-11 and thus encodes for AI receptors. The prediction is that knocking down AI receptors prevents the cell death induced by ST-11. T98 g cells were treated with siRNA targeting each of the 39 GPCR gene candidates individually. The first experiment was designed to knock down each GPCR candidate liming a mixture of 3 siRNAs, and thus maximize genetic targeting efficacy. Thus, cells were incubated with siRNA mixtures and then treated with ST-11 (1 μM) and cell viability measured after three days. Only one mixture of siRNAs (that targeting GPR124) decreased the toxicity of ST-11. […] Two of the three siRNAs knocked-down GPR124 expression by more than 80% over 4 days (FIG. 5b). […] The killing effect induced by ST-11 is mediated by GPR124, an AI receptor.

CCn1c(C)c(C(=O)c2ccc(C)c3ccccc23)c2ccccc21 [ST-11]
ST-11-induced killing of T98 g cells when GPR124 mRNA expression is reduced: reduced
